The test addresses TmrAB (Thermus thermophilus, UniProt Q72J04+Q72J05). The note with it: 2 mM Mg-ATP, 2 mM MgCl2, pH 7.5, 0.2% DDM, 40 °C, 8 min.

Structures are written as SMILES.

TmrAB, sequence (Q72J05 1-600): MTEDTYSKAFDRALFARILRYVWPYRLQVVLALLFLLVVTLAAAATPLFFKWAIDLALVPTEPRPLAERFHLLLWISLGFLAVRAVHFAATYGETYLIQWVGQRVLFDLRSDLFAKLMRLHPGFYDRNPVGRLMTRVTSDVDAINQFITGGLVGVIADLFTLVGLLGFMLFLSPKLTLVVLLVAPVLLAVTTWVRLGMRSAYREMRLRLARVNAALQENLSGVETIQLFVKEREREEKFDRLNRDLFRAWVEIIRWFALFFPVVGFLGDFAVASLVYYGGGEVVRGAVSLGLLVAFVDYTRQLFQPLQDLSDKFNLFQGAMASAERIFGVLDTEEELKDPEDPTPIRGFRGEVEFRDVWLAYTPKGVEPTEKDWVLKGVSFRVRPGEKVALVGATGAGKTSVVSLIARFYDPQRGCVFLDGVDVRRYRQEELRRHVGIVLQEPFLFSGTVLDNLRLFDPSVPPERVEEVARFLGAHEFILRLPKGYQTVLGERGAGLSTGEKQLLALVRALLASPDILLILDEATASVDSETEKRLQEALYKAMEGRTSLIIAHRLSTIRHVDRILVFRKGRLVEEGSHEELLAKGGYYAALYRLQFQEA
TmrAB, sequence (Q72J04 1-578): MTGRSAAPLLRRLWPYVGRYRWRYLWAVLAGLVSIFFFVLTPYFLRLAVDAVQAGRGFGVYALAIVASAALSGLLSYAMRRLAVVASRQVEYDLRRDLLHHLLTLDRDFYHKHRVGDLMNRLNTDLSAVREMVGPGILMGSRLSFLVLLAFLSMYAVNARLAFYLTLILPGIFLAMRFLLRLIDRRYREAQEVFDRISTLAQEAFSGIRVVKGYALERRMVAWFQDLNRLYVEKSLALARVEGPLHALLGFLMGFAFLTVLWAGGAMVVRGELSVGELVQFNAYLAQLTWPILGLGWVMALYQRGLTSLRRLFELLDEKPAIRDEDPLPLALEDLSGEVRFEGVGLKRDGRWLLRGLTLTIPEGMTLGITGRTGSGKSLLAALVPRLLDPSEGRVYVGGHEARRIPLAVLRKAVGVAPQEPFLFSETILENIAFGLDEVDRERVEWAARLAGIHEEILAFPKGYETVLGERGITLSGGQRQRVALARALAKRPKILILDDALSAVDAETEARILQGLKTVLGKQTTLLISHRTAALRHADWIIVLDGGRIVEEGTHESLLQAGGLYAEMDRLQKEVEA

For `Nc1ncnc2c1ncn2[C@@H]1O[C@H](COP(=O)(O)OP(=O)(O)OP(=O)(O)O)[C@@H](O)[C@H]1O` [ATP], the ATPase activity entry is given as “A high ATPase activity above background demonstrated TmrAB function (Figure 1c)”.

The record behind these values is publication PMC8157534 (ACS Nano, 2021).
